Drawing on US20120053218A1, “TRIAZOLE DERIVATIVES AS VASOPRESSIN-RECEPTOR INHIBITORS FOR TREATING CARDIAC INSUFFICIENCY” (BAYER PHARMA AKTIENGESELLSCHAFT, priority 2009, published 2012), this text covers IC50 for seven molecules.

The target in one experiment is T1, human V1a receptor (Homo sapiens, UniProt P37288).
T1 construct: expressed in transfected cells; host or cells: CHO K1 (ATCC), constitutively expressing modified aequorin
As to the kind of experiment: Cellular in vitro assay for vasopressin receptor activity (aequorin luminescence, CHO K1 cells), hV1a. In kind it is cell-based. To be noted: CHO cell line transfected with human V1a receptor, agonist [Arg8]-vasopressin. From the text:
(§1) The identification of agonists and antagonists of the V1a and V2 vasopressin receptors from humans and rats and also the quantification of the activity of the substances described here took place using recombinant cell lines. These cells derive originally from a hamster ovary epithelial cell (Chinese Hamster Ovary, CHO K1, ATCC: American Type Culture Collection, Manassas, Va. 20108, USA). The test cell lines constitutively express a modified form of the calcium-sensitive photoprotein aequorin, which, after reconstitution with the cofactor coelenterazine, emits light when there are increases in the free calcium concentration (Rizzuto R., Simpson A. W., Brini M., Pozzan T.; Nature 358 (1992) 325-327). In addition, the cells are stably transfected with the human or rat V1a or V2 receptors. In the case of the Gs-coupling V2 receptors, the cells are stably transfected with a further gene, which codes for the promiscuous Gα16 protein (Amatruda T. T., Steele D. A., Slepak V. Z., Simon M. I., Proc. Nat. Acad. Sci. USA 88 (1991), 5587-5591), either independently or as a fusion gene. The resulting vasopressin receptor test cells react to stimulation of the recombinantly expressed vasopressin receptors by intracellular release of calcium ions, which can be quantified by the resulting aequorin luminescence using a suitable luminometer (Milligan G., Marshall F., Rees S., Trends in Pharmaco. Sci. 17 (1996) 235-237).
(§2) Test procedure: On the day before the assay, the cells are plated out in culture medium (DMEM, 10% FCS, 2 mM glutamine, 10 mM HEPES) in 384-well microtiter plates and kept in a cell incubator (96% humidity, 5% v/v carbon dioxide, 37° C.). On the day of the assay, the culture medium is replaced by a Tyrode solution (140 mM sodium chloride, 5 mM potassium chloride, 1 mM magnesium chloride, 2 mM calcium chloride, 20 mM glucose, 20 mM HEPES), which additionally contains the cofactor coelenterazine (50 μM), and the microtiter plate is then incubated for a further 3-4 hours. The test substances in various concentrations are placed for 10 to 20 minutes in the wells of the microtiter plate before the agonist [Arg8]-vasopressin is added, and the resulting light signal is measured immediately in the luminometer. The IC50 values are calculated using the GraphPad PRISM computer program (Version 3.02).
(§3) The table below lists representative IC50 values for the compounds of the invention on the cell line transfected with the human V1a or V2 receptor: […]

The next experiment concerns the target T2, human V2 receptor (Homo sapiens, UniProt P30518).
T2 construct: expressed in transfected cells; host or cells: CHO K1 (ATCC), constitutively expressing modified aequorin and co-transfected with Gα16
Briefly: Cellular in vitro assay for vasopressin receptor activity (aequorin luminescence, CHO K1 cells), hV2. The note with it: CHO cell line transfected with human V2 receptor and Gα16, agonist [Arg8]-vasopressin. Type of experiment: cell-based.
From the text: as §1, §2, §3

Molecules are shown by their SMILES.

T2 sequence (P30518 whole entry): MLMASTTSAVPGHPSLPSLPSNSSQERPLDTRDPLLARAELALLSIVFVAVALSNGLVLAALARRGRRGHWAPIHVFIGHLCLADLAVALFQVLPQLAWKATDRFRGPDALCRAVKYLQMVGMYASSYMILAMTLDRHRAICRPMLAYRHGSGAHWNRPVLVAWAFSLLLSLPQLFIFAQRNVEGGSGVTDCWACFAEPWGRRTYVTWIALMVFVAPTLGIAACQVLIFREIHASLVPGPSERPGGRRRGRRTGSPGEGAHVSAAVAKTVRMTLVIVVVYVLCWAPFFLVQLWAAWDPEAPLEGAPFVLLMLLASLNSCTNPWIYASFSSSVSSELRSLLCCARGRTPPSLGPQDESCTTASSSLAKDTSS
T1 sequence (P37288 whole entry): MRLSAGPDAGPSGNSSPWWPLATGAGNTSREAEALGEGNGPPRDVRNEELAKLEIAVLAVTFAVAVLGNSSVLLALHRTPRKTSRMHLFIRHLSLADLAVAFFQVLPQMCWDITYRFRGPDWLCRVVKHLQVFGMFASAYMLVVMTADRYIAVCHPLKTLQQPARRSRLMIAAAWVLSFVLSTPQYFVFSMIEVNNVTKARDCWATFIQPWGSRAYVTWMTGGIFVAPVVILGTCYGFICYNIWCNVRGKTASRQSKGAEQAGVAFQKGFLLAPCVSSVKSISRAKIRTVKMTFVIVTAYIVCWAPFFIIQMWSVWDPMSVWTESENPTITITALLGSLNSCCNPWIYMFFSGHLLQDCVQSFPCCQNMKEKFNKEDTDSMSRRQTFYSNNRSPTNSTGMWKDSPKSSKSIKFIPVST

A word on the IC50: it is the midpoint of a concentration-inhibition curve. High values mean lower potency, low ones higher potency. As for `C[C@](NC(=O)Cn1nc(-c2ccc(Cl)cc2)n(C[C@H](O)C(F)(F)F)c1=O)(C(N)=O)c1ccccc1Cl` [Example 17, (2R)-2-(2-Chlorophenyl)-2-[({3-(4-chlorophenyl)-5-oxo-4-[(2S)-3,3,3-trifluoro-2-hydroxypropyl]-4,5-dihydro-1H-1,2,4-triazol-1-yl}acetyl)amino]propanamide], the IC50 at human V1a receptor was 12 nM; at human V2 receptor it was 220 nM.

As to `C[C@@](NC(=O)Cn1nc(-c2ccc(Cl)cc2)n(C[C@H](O)C(F)(F)F)c1=O)(C(N)=O)c1cccc(C(F)(F)F)c1` [Example 3, (2S)-2-[({3-(4-Chlorophenyl)-5-oxo-4-[(2S)-3,3,3-trifluoro-2-hydroxypropyl]-4,5-dihydro-1H-1,2,4-triazol-1-yl}acetyl)amino]-2-[3-(trifluoromethyl)phenyl]propanamide], the figures for the IC50 on human V1a receptor and at human V2 receptor were 106 nM and 28 nM, respectively.

Consider `CCC(NC(=O)Cn1nc(-c2ccc(Cl)cc2)n(C[C@H](O)C(F)(F)F)c1=O)(C(N)=O)c1cccc(C(F)(F)F)c1` (single isomer, unassigned) [Example 14], for which the IC50 on human V1a receptor came out at 6 nM; on human V2 receptor it was 6.4 nM.

Consider `CC(NC(=O)Cn1nc(-c2ccc(Cl)cc2)n(Cc2ccccc2F)c1=O)(C(N)=O)c1cccc(C(F)(F)F)c1` (single isomer, unassigned) [Example 25, 2-({[3-(4-Chlorophenyl)-4-(2-fluorobenzyl)-5-oxo-4,5-dihydro-1H-1,2,4-triazol-1-yl]acetyl}amino)-2-[3-(trifluoromethyl)phenyl]propanamide], for which the IC50 on human V1a receptor worked out at 6 nM; at human V2 receptor, 16 nM.

Take `CC(NC(=O)Cn1nc(-c2ccc(Cl)cc2)n(C[C@H](O)C(F)(F)F)c1=O)(C(=O)O)c1cccc(C(F)(F)F)c1` (stereo partly drawn) [Example 1, 2-[({3-(4-Chlorophenyl)-5-oxo-4-[(2S)-3,3,3-trifluoro-2-hydroxypropyl]-4,5-dihydro-1H-1,2,4-triazol-1-yl}acetyl)amino]-2-[3-(trifluoromethyl)phenyl]propanoic acid]: the IC50 came to 118 nM on human V1a receptor and 12 nM on human V2 receptor.

Turning to `C[C@](NC(=O)Cn1nc(-c2ccc(Cl)cc2)n(C[C@H](O)C(F)(F)F)c1=O)(C(N)=O)c1cccc(C(F)(F)F)c1` [Example 4, (2R)-2-[({3-(4-Chlorophenyl)-5-oxo-4-[(2S)-3,3,3-trifluoro-2-hydroxypropyl]-4,5-dihydro-1H-1,2,4-triazol-1-yl}acetyl)amino]-2-[3-(trifluoromethyl)phenyl]propanamide], the IC50 was determined as 2.2 nM at human V1a receptor and 3.7 nM on human V2 receptor.

As for `C[C@](NC(=O)Cn1nc(-c2ccc(Cl)cc2)n(/C=C/C(F)(F)F)c1=O)(C(N)=O)c1cccc(C(F)(F)F)c1` [Example 19, (2R)-2-[({3-(4-Chlorophenyl)-5-oxo-4-[(1E)-3,3,3-trifluoroprop-1-en-1-yl]-4,5-dihydro-1H-1,2,4-triazol-1-yl}acetyl)amino]-2-[3-(trifluoromethyl)phenyl]propanamide], the IC50 turned out to be 13 nM at human V1a receptor and 14 nM at human V2 receptor.
